In US10251835B2, “Cranial delivery of pharmaceuticals” (GLIA, LLC, priority 2013, dated 2019):
“Also recorded” adds a separate entry of the source.

Legend:
[1] = system: subject with left-side trigeminal neuralgia and facial droop; assay: Treatment of trigeminal neuralgia and facial palsy; assay type: in vivo, human; conditions: progesterone 1% (1 mg) four times daily to forehead followed by 0.15 g ganciclovir (0.15% formulation) up to five times daily
Procedure: A subject presented with left-side trigeminal neuralgia and left side facial droop of 10 years duration. Therapy was initiated by topically applying progesterone (1% by weight) equivalent to 1 mg four times daily to the patient's forehead. This was followed by application of 0.15 g ganciclovir (as a 0.15% by weight formulation) up to five times daily.

[2] = system: patient with corneal Herpes zoster; assay: Treatment of herpetic keratitis; assay type: in vivo, human; conditions: for intraocular pressure: ganciclovir gel plus progesterone to forehead
From the text: A person suffered a first onset of active corneal Herpes zoster. They presented with classic Herpes Zoster symptoms including, left hemisphere unilateral skin lesions on forehead, bridge of nose area and down the nose not including the tip; left cornea dendrites, keratitis and edema; loss of functional vision, elevated intraocular pressure as high as 42 mm Hg, conjunctival irritation and redness and anesthetic cornea. There were also general body flu symptoms.
The patient was initially treated with ophthalmic prednisolone acetate 1% up to 5 times daily, ophthalmic antibiotics, non-prescription ophthalmic wetting agents, and lubrication with gels administered to the eye. Additional drug therapies included systemic oral valcyclovir as high as 2 g per day and medications to reduce intraocular pressure.
Despite the therapy, symptom flare-up was as frequent as 2 weeks to 1 month over the past 10 years. Although intraocular pressure returned to within the normal range, cataracts formed as a result of long term use of corticosteroids.
The cornea surface contour became increasingly distorted with prominent ridges. There was incursion of capillaries across the conjunctiva into the cornea, both superficially and deep. Deposition of phospholipids through a leaching process occluded the cornea with grey color deposits on about 50% of its surface.
Corneal thinning had progressed to near perforation levels which required preparation for corneal patch surgery.
At this point, 1% topical progesterone (approximately 1 mg of progesterone) was first administered as a method to keep the cornea from perforating and the tear film intact. The drug was applied to the forehead 4 times daily together with topical antibiotics and corticosteroids.
After stabilizing the cornea, antiviral treatment was begun with ganciclovir gel (0.15%; 0.15 mg of drug) applied five times daily to the forehead together with once daily progesterone (1%; 1 mg of drug) and a nightly drop of ophthalmic antibiotic. Intraocular pressure measured at the onset of ganciclovir treatment was 18 mm Hg.
The patient reported a decrease in eye strain as a result of an improvement in tear film. […] Over the next two weeks, inflammation was further reduced and visual acuity increased somewhat when the head was tilted back. During the first full month of treatment, the affected eye generally felt comfortable. There was a lack of inflammation, and some vision returned to the threshold of functionality. Intraocular pressure remained normal in the range of 16 mm Hg.
There was modest improvement in reading the eye chart, and corneal staining due to defects was minimized. Intraocular pressure remained normal in both eyes at about 16 mm Hg during this period. The phospholipid deposits further reduced in density and began to give the appearance of lesser areas of concentrations. Nearly functional vision could be achieved by positioning the head back and viewing through the central cornea. The residual clear area of the cornea became more so and less inflamed. Through the end of the second month, improvement to the cornea accelerated. The pupil was now clearly visible and more light was entering the eye.
The patient was examined regularly by an ophthalmologist, and after three and one half months of treatment. The intraocular pressure was normal at 12 mm Hg. […] Intraocular pressure has remained in the same range for more than one year.

[3] = system: person; assay: Rapid anti-anxiety treatment; assay type: in vivo, human; conditions: 1 mg midazolam to forehead
Procedure: A person applied 1 mg of midazolam to their forehead on three separate occasions. […] These effects lasted for 4 to 6 hours after application of the drug.

[4] = system: patient unable to swallow with loss of appetite; assay: Treatment of drug-induced anorexia and oropharyngeal dysphagia, dronabinol applied to forehead; assay type: in vivo, human
Procedure: A patient had been on dexamethasone therapy for 20 months following surgery, radiation, and chemotherapy. After tapering the dose of dexamethasone from 16 mg per day to 1.5 mg per day, the patient was unable to swallow and reported a loss of appetite. Dronabinol was administered to the patient's forehead once per day at 2.5 mg per dose. Improvement in swallowing and appetite were noted within 24 hours of the first administration.
After three weeks of continued dronabinol therapy, application was again stopped for 24 hours, resulting in the same loss of appetite and difficulty swallowing.
The effect of oral administration of dronabinol was tested after another two weeks as an alternative to the topical route of administration described above. […] Typical meals include steak, meatball sandwich and fruit drinks.
The patient had also ceased dexamethasone dosing very early on.

[5] = system: patient with cognitive impairment due to surgery; assay: Treatment of surgically induced cognitive deficits, cranially delivered dronabinol; assay type: in vivo, human
From the text: The patient described in Example 1 suffered from a co-morbid condition of cognitive impairment due to surgery to remove a frontal lobe glioblastoma multiforma. The cognitive impairment continued for two years following the surgery at which time treatment with cranially delivered dronabinol was begun.

[6] = system: person with late stage Alzheimer disease; assay: Treatment of symptoms associated with Alzheimer's disease; assay type: in vivo, human; conditions: approximately 2 mg dronabinol to forehead, then daily dosing
Procedure: A person diagnosed with late stage Alzheimer disease five years ago suffers from episodes of extreme agitation, aggressive behavior, and nocturnal restlessness and disorientation that is difficult for their caregiver to manage. Approximately 2 mg dronabinol was delivered cranially to their forehead.

[7] = system: person with CYMBALTA induced loss of appetite; conditions: 2 mg dronabinol to forehead daily with oral CYMBALTA; 2 week course
Procedure: The subject topically applied 2 mg of dronabinol to their forehead daily together with the oral CYMBALTA™.

[8] = system: dogs with mucus discharge from the eyes; assay: Treatment of dry eye in domestic animals; assay type: in vivo, dog; conditions: bulldog; tacrolimus directly in the eye
From the text: A puggle presented with mucus discharge from the eyes. […] The owner reported that the dog has this problem spring and fall, which indicates it is allergic seasonal rhinitis. The reported use took place in the fall.
A bulldog diagnosed with Sjogren's syndrome had mucus discharge from the eyes.

Compound: Nc1nc(O)c2ncn(COC(CO)CO)c2n1 [ganciclovir]
- facial muscles contracted for 10 years [1]: relaxation of facial muscles
- inflammation, visual acuity and state of affected eye ([2]; ganciclovir gel 0.15% (0.15 mg) five times daily plus progesterone 1% (1 mg) once daily to forehead, nightly ophthalmic antibiotic, 1 week to 3.5 months): less inflammation and a slight improvement in visual acuity; also recorded: some functional vision was attained; also recorded: stable and normalizing
- intraocular pressure ([2]; after three and one half months): 12 mm Hg
- intraocular pressure ([2]; both eyes, examination period up to third month): about 16 mm Hg
- intraocular pressure ([2]; first full month of treatment): ~16 mm Hg

Compound: Cc1ncc2n1-c1ccc(Cl)cc1C(c1ccccc1F)=NC2 [midazolam]
- duration of effects [3]: 4 to 6 h
- effect produced [3]: mild sedation and anti-anxiety
- time to response ([3]; three separate occasions): ≤ 5 min

Compound: CCCCCc1cc(O)c2c(c1)OC(C)(C)[C@@H]1CCC(C)=C[C@@H]21 (relative stereo) [dronabinol, (6aR-trans)-6a,7,8,10a-tetrahydro-6,6,9-trimethyl-3-pentyl-6H-dibenzo[b,d]pyran-1-ol]
- appetite and swallowing after missing dronabinol therapy ([4]; after missing one day of dronabinol therapy): decrease in appetite and difficulty swallowing liquids
- dose requirement on continued treatment ([4]; after one year of cranial dosing with challenge stops and restarts): No increase in dose has been required; also recorded: daily dosing is necessary for continued effectiveness
- appetite and swallowing (patient report) ([4]; dronabinol 2.5 mg applied to forehead, four weeks, restarts and single rescue doses): healthy appetite and no problems swallowing; also recorded: normal appetite and swallowing after one day; also recorded: complete reversal of symptoms within about two hours; also recorded: rescued again by single dose applied cranially
- time to improvement in swallowing and appetite ([4]; dronabinol 2.5 mg per dose to forehead once per day, after first administration): ≤ 24 h
- swallowing and chewing under oral administration ([4]; oral 2.5 mg dronabinol instead of topical, within one day): difficulty swallowing and chewing
- scar tissue around the area of surgery as detected by imaging [5]: noticeable decrease in scar tissue
- cognitive function (noted by physicians) ([5]; begun two years after surgery): dramatic improvement in cognitive function
- agitation, aggressive behavior, nocturnal restlessness symptoms [6]: improvement in their symptoms was observable within two hours; also recorded: less frequent nocturnal disturbances; also recorded: additional significantly noticeable improvement in their symptoms
- prevention of CYMBALTA induced loss of appetite [7]: prevented the CYMBALTA™ induced loss of appetite

Compound: C=CC[C@@H]1/C=C(\C)C[C@H](C)C[C@H](OC)[C@H]2O[C@@](O)(C(=O)C(=O)N3CCCC[C@H]3C(=O)O[C@H](/C(C)=C/[C@@H]3CC[C@@H](O)[C@H](OC)C3)[C@H](C)[C@@H](O)CC1=O)[C@H](C)C[C@@H]2OC [tacrolimus]
- mucus discharge from the eyes [8]: without completely stopping the discharge
